Experimental data as given in patent publication US12084461B2, “Bicyclic heteroaryl derivatives” (Hoffmann-La Roche Inc., priority 2018, dated 2024).

test system: γ-secretase; assay: Cellular γ-secretase assay (inhibition of Aβ42 secretion, AlphaLisa); type: cell-based; settings: human neuroglioma H4 cells overexpressing human APP695 Swedish double mutation, 24 h compound incubation
Description: Human neuroglioma H4 cells overexpressing human APP695 with the Swedish double mutation (K595N/M596L) were plated at 30,000 cells/well/100 μL in 96-well plates in IMDM containing 10% FCS, 0.2 mg/L Hygromycin B and incubated at 37° C., 5% CO2. 3-4 h post plating, compounds are a diluted in media and 50 μL is added as […] concentrate to achieve the final concentration. Compound incubation is performed for 24 h. Final doses typically range from 4 μM down to 0.0013 μM in half-log steps resulting in an eight-point dose response curve.
Appropriate controls using vehicle only and reference compound were applied to this assay. The final concentration of Me2SO was 0.4%.
After incubation at 37° C., 5% CO2, the supernatant was subjected to quantification of secreted Aβ42 by the means of an AlphaLisa assay kit (Human Amyloid beta 1-42 Kit: Cat # AL203C, Perkin Elmer). 20 μL of the cell culture supernatant was transferred to an assay plate. Then 10 μL, of a mixture of the AlphaLisa coupled capture antibody and the biotinylated detection antibody was added and incubated for 3 h at RT while softly shaking the assay plate. After a further addition of 20 μL of the Donor beads the assay plate was incubated for 30 min at RT and constant shaking without exposure to direct light. The assay plate was then read on a Paradigm AlphaLisa Reader using the build-in program with excitation at 680 nm and emission at 570 nm. The measured signals were then used to calculate IC50 values for inhibition of Aβ42 secretion by nonlinear regression fit analysis using XLfit 5.3 software (from IDBS company).

| IC50 [nM] | Compound |
| --- | --- |
| 84.7 | COc1cc(N2C[C@H]3CC[C@@H](C2)[C@@H]3Nc2nc3n(n2)CCCO[C@@H]3c2cccc(F)c2F)cnn1 (single isomer, unassigned) [Example 1] |
| 51.1 | COc1cc(N2C[C@H]3CC[C@@H](C2)[C@@H]3Nc2nc3n(n2)CCCOC3c2cccc(F)c2F)cnn1 (single isomer, unassigned) [Example 2] |
| 76.2 | COc1cc(N2C[C@H]3CC[C@@H](C2)[C@@H]3Nc2nc3n(n2)CCCOC3c2ccc(F)cc2F)cnn1 (single isomer, unassigned) [Example 4] |
| 47.7 | Cc1cc(N2C[C@H]3CC[C@@H](C2)[C@@H]3Nc2nc3n(n2)CCCO[C@@H]3c2cccc(F)c2F)ncn1 (single isomer, unassigned) [Example 5] |
| 62.3 | Cc1cc(N2C[C@H]3CC[C@@H](C2)[C@@H]3Nc2nc3n(n2)CCCOC3c2cccc(F)c2F)ncn1 (single isomer, unassigned) [Example 6] |
| 43.3 | Cc1cc(N2C[C@H]3CC[C@@H](C2)[C@@H]3Nc2nc3n(n2)CCCO[C@@H]3c2cc(F)cc(F)c2)ncn1 (single isomer, unassigned) [Example 7] |
| 74.9 | Cc1cc(N2C[C@H]3CC[C@@H](C2)[C@@H]3Nc2nc3n(n2)CCCO[C@@H]3c2ccc(F)cc2F)ncn1 (single isomer, unassigned) [Example 8] |
| 21.7 | Cc1cc(N2C[C@H]3CC[C@@H](C2)[C@@H]3Nc2nc3n(n2)CCCOC3c2cc(F)cc(F)c2)ncn1 (single isomer, unassigned) [Example 9] |
| 71.8 | Cc1cc(N2C[C@H]3CC[C@@H](C2)[C@@H]3Nc2nc3n(n2)CCCOC3c2ccc(F)cc2F)ncn1 (single isomer, unassigned) [Example 10] |
| 72.3 | COc1cc(N2C[C@H]3CC[C@@H](C2)[C@@H]3Nc2nc3n(n2)CCCOC3c2cc(F)cc(F)c2)cnn1 (single isomer, unassigned) [Example 12] |
| 21.8 | COc1cc(N2C[C@H]3CC[C@@H](C2)[C@@H]3Nc2nc3n(n2)CCCO[C@@H]3c2ccc(F)c(F)c2F)cnn1 (single isomer, unassigned) [Example 13] |
| 45.1 | COc1cc(N2C[C@H]3CC[C@@H](C2)[C@@H]3Nc2nc3n(n2)CCCOC3c2ccc(F)c(F)c2F)cnn1 (single isomer, unassigned) [Example 14] |
| 62.6 | Cc1cc(N2C[C@H]3CC[C@@H](C2)[C@@H]3Nc2nc3n(n2)CCCOC3c2cc(F)cc(Cl)c2)cnn1 (single isomer, unassigned) [Example 16] |
| 82.3 | Cc1cc(N2C[C@H]3CC[C@@H](C2)[C@@H]3Nc2nc3n(n2)CCCO[C@@H]3c2ccc(F)c(F)c2F)cnn1 (single isomer, unassigned) [Example 17] |
| 13.2 | COc1cc(N2C[C@H]3CC[C@@H](C2)[C@@H]3Nc2nc3n(n2)CCCO[C@@H]3c2cc(F)cc(Cl)c2)cnn1 (single isomer, unassigned) [Example 19] |
| 34.5 | COc1cc(N2C[C@H]3CC[C@@H](C2)[C@@H]3Nc2nc3n(n2)CCCOC3c2cc(F)cc(Cl)c2)cnn1 (single isomer, unassigned) [Example 20] |
| 71.8 | COc1cc(N2C[C@H]3CC[C@@H](C2)[C@@H]3Nc2nc3n(n2)CCOC3c2cc(F)cc(Cl)c2)cnn1 (single isomer, unassigned) [Example 22] |
| 78.9 | Cc1cc(N2C[C@H]3CC[C@@H](C2)[C@@H]3Nc2nc3n(n2)CCOC3c2ccc(F)c(F)c2F)ncn1 (single isomer, unassigned) [Example 24] |

| IC50 [nM] | Compound |
| --- | --- |
| 95.9 | COc1cc(N2C[C@H]3CC[C@@H](C2)[C@@H]3Nc2nc3n(n2)CCOC3c2ccc(F)c(F)c2F)cnn1 (single isomer, unassigned) [Example 28] |
| 52 | COc1cc(N2C[C@H]3CC[C@@H](C2)[C@@H]3Nc2nc3n(n2)CCO[C@@H]3c2ccc(F)c(F)c2F)ccn1 (single isomer, unassigned) [Example 31] |
| 10.9 | Cc1cc(N2C[C@H]3CC[C@@H](C2)[C@@H]3Nc2nc3n(n2)CCCO[C@@H]3c2cc(F)cc(Cl)c2)ncn1 (single isomer, unassigned) [Example 33] |
| 19.6 | Cc1cc(N2C[C@H]3CC[C@@H](C2)[C@@H]3Nc2nc3n(n2)CCCOC3c2cc(F)cc(Cl)c2)ncn1 (single isomer, unassigned) [Example 34] |
| 6.58 | COc1cc(N2C[C@H]3CC[C@@H](C2)[C@@H]3Nc2nc3n(n2)CCCO[C@@H]3c2cc(F)cc(Cl)c2)ccn1 (single isomer, unassigned) [Example 35] |
| 12.9 | COc1cc(N2C[C@H]3CC[C@@H](C2)[C@@H]3Nc2nc3n(n2)CCCOC3c2cc(F)cc(Cl)c2)ccn1 (single isomer, unassigned) [Example 36] |
| 12.7 | COc1cc(N2C[C@H]3CC[C@@H](C2)[C@@H]3Nc2nc3n(n2)CCCOC3c2ccc(F)c(F)c2F)ccn1 (single isomer, unassigned) [Example 38] |
| 43.9 | Cc1cc(N2C[C@H]3CC[C@@H](C2)[C@@H]3Nc2nc3n(n2)CCCO[C@@H]3c2ccc(F)c(F)c2F)ncn1 (single isomer, unassigned) [Example 39] |
| 19.2 | Cc1cc(N2C[C@H]3CC[C@@H](C2)[C@@H]3Nc2nc3n(n2)CCCOC3c2ccc(F)c(F)c2F)ncn1 (single isomer, unassigned) [Example 40] |
| 87.4 | COc1cc(N2C[C@H]3CC[C@@H](C2)[C@@H]3Nc2nc3n(n2)CCCO[C@@H]3c2ccc(F)cc2F)cnn1 [Example 3, (9R)-9-(2,4-difluorophenyl)-N-[(1R,5S)-3-(6-methoxypyridazin-4-yl)-3-azabicyclo[3.2.1]octan-8-yl]-5,6,7,9-tetrahydro-[1,2,4]triazolo[5,1-c][1,4]oxazepin-2-amine] |
| 22.1 | COc1cc(N2C[C@H]3CC[C@@H](C2)[C@@H]3Nc2nc3n(n2)CCCO[C@@H]3c2cc(F)cc(F)c2)cnn1 [Example 11, (9R)-9-(3,5-difluorophenyl)-N-[(1R,5S)-3-(6-methoxypyridazin-4-yl)-3-azabicyclo[3.2.1]octan-8-yl]-5,6,7,9-tetrahydro-[1,2,4]triazolo[5,1-c][1,4]oxazepin-2-amine] |
| 23.9 | Cc1cc(N2C[C@H]3CC[C@@H](C2)[C@@H]3Nc2nc3n(n2)CCCO[C@@H]3c2cc(F)cc(Cl)c2)cnn1 [Example 15, (9R)-9-(3-chloro-5-fluoro-phenyl)-N-[(1R,5S)-3-(6-methylpyridazin-4-yl)-3-azabicyclo[3.2.1]octan-8-yl]-5,6,7,9-tetrahydro-[1,2,4]triazolo[5,1-c][1,4]oxazepin-2-amine] |
| 16.6 | COc1cc(N2C[C@H]3CC[C@@H](C2)[C@@H]3Nc2nc3n(n2)CCO[C@@H]3c2cc(F)cc(Cl)c2)cnn1 [Example 21, (8R)-8-(3-chloro-5-fluoro-phenyl)-N-[(1R,5S)-3-(6-methoxypyridazin-4-yl)-3-azabicyclo[3.2.1]octan-8-yl]-6,8-dihydro-5H-[1,2,4]triazolo[5,1-c][1,4]oxazin-2-amine] |
| 59.7 | Cc1cc(N2C[C@H]3CC[C@@H](C2)[C@@H]3Nc2nc3n(n2)CCO[C@@H]3c2ccc(F)c(F)c2F)ncn1 [Example 23, (8R)—N-[(1R,5S)-3-(6-methylpyrimidin-4-yl)-3-azabicyclo[3.2.1]octan-8-yl]-8-(2,3,4-trifluorophenyl)-6,8-dihydro-5H-[1,2,4]triazolo[5,1-c][1,4]oxazin-2-amine] |
| 20.8 | Cc1cc(N2C[C@H]3CC[C@@H](C2)[C@@H]3Nc2nc3n(n2)CCO[C@@H]3c2cc(F)cc(Cl)c2)ncn1 [Example 25, (8R)-8-(3-chloro-5-fluoro-phenyl)-N-[(1R,5S)-3-(6-methylpyrimidin-4-yl)-3-azabicyclo[3.2.1]octan-8-yl]-6,8-dihydro-5H-[1,2,4]triazolo[5,1-c][1,4]oxazin-2-amine] |
| 77.4 | COc1cc(N2C[C@H]3CC[C@@H](C2)[C@@H]3Nc2nc3n(n2)CCO[C@@H]3c2ccc(F)c(F)c2F)cnn1 [Example 27, (8R)—N-[(1R,5S)-3-(6-methoxypyridazin-4-yl)-3-azabicyclo[3.2.1]octan-8-yl]-8-(2,3,4-trifluorophenyl)-6,8-dihydro-5H-[1,2,41]triazolo[5,1-c][1,4]oxazin-2-amine] |
| 11.2 | COc1cc(N2C[C@H]3CC[C@@H](C2)[C@@H]3Nc2nc3n(n2)CCO[C@@H]3c2cc(F)cc(Cl)c2)ccn1 [Example 29, (8R)-8-(3-chloro-5-fluoro-phenyl)-N-[(1R,5S)-3-(2-methoxy-4-pyridyl)-3-azabicyclo[3.2.1]octan-8-yl]-6,8-dihydro-5H-[1,2,4]triazolo[5,1-c][1,4]oxazin-2-amine] |
| 15.7 | COc1cc(N2C[C@H]3CC[C@@H](C2)[C@@H]3Nc2nc3n(n2)CCCO[C@@H]3c2ccc(F)c(F)c2F)ccn1 [Example 37, (9R)—N-[(1R,5S)-3-(2-methoxy-4-pyridyl)-3-azabicyclo[3.2.1]octan-8-yl]-9-(2,3,4-trifluorophenyl)-5,6,7,9-tetrahydro-[1,2,4]triazolo[5,1-c][1,4]oxazepin-2-amine] |
